Among the data in patent US10375956B2, “Herbicidally active 2-(substituted-phenyl)-cyclopentane-1,3-dione compounds and derivatives thereof” (Syngenta Limited, priority 2013, dated 2019) are pest or weed control and plant injury values, retold here.

Common to all, as to assay type: in vivo
Assay [1] has as its system Abutilon theophrasti (ABUTH). Description: Test 1 glasshouse assay, pre-emergence herbicidal activity. Particulars: 312 h, visual evaluation after 13 days, read-out: Percentage phytotoxicity ABUTH. The method, then: (§1) Seeds of a variety of test species are sown in standard soil in pots. After cultivation for one day (pre-emergence) or after 8 days cultivation (post-emergence) under controlled conditions in a glasshouse (at 24/16° C., day/night; 14 hours light; 65% humidity), the plants are sprayed with an aqueous spray solution derived from the formulation of the “technical” (i.e. unformulated) active ingredient in acetone/water (50:50) solution containing 0.5% Tween 20 (polyoxyethylene sorbitan monolaurate, CAS Registry Number 9005-64-5). The test plants are then grown on under controlled conditions in a glasshouse (at 24/16° C., day/night; 14 hours light; 65% humidity) and watered twice daily. After 13 days for pre- or post-emergence, the test is evaluated visually, and an assessed percentage phytotoxicity score is given for each herbicidal application on each plant species (where 100%=total damage to plant; 0%=no damage to plant).
(§2) Test plants include the following: Abutilon theophrasti (ABUTH), Amaranthus retroflexus (AMARE): these are dicotyledonous (broadleaved) weeds. Setaria faberi (SETFA), Alopecurus myosuroides (ALOMY), Echinochloa crus-galli (ECHCG): these are grassy monocotyledonous weeds. Also: Zea mays (ZEAMX, corn/maize), which can be a grassy weed (“volunteer” corn) in some circumstances.

For assay [2], the system named is Amaranthus retroflexus (AMARE). Described as above. Particulars: 312 h, visual evaluation after 13 days, read-out: Percentage phytotoxicity AMARE. Here is the method: as §1, §2
In assay [3] the test system is Setaria faberi (SETFA). Described as above. Particulars: 312 h, visual evaluation after 13 days, read-out: Percentage phytotoxicity SETFA. The method, then:
as §1, §2

The test system of assay [4] is Echinochloa crus-galli (ECHCG). The assay is described as above. Particulars: 312 h, visual evaluation after 13 days, read-out: Percentage phytotoxicity ECHCG. Here is the method:
as §1, §2

Assay [5] deals with Alopecurus myosuroides (ALOMY). The description is as above. Particulars: 312 h, visual evaluation after 13 days, read-out: Percentage phytotoxicity ALOMY. Here is the method:
as §1, §2

Assay [6] deals with Zea mays (ZEAMX, corn/maize). Described as above. Particulars: 312 h, visual evaluation after 13 days, read-out: Percentage phytotoxicity ZEAMX. The method, then: as §1, §2
In assay [7] the test system is Echinochloa crus-galli (ECHCG). The assay is described as follows: Test 1 glasshouse assay, post-emergence herbicidal activity. Particulars: 312 h, after 13 days, read-out: Percentage phytotoxicity ECHCG. Here is the method:
as §1
(§3) Test plants include the following: Abutilon theophrasti (ABUTH) and Amaranthus retroflexus (AMARE); these are all dicotyledonous (broadleaved) weeds. Setaria faberi (SETFA), Alopecurus myosuroides (ALOMY), and Echinochloa crus-galli (ECHCG); these are all grassy monocotyledonous weeds. Also: Zea mays (ZEAMX, corn/maize), which can be a grassy weed (“volunteer” corn) in some circumstances.
(§4) Lolium perenne (LOLPE), Alopecurus myosuroides (ALOMY), Echinochloa crus-galli (ECHCG), and Avena fatua (AVEFA); these are all grassy monocotyledonous weeds. Cool climate crop plant: Triticum aestivum (TRZAW, winter wheat).

Assay [8] deals with Alopecurus myosuroides (ALOMY). Described as above. Particulars: 312 h, after 13 days, read-out: Percentage phytotoxicity ALOMY. The method, then:
as §1, §3, §4

Assay [9] deals with Abutilon theophrasti (ABUTH). The assay is described as above. Particulars: 312 h, post-emergence (Example 1B Table 1), after 13 days, read-out: Percentage phytotoxicity ABUTH. The method, then: as §1, §3
Assay [10] relates to Amaranthus retroflexus (AMARE). The assay is described as above. Particulars: 312 h, post-emergence (Example 1B Table 1), after 13 days, read-out: Percentage phytotoxicity AMARE. Here is the method: as §1, §3
For assay [11], the system named is Setaria faberi (SETFA). The description is as above. Particulars: 312 h, post-emergence (Example 1B Table 1), after 13 days, read-out: Percentage phytotoxicity SETFA. The method, then: as §1, §3
Assay [12] has as its system Zea mays (ZEAMX, corn/maize). Described as above. Particulars: 312 h, post-emergence (Example 1B Table 1), after 13 days, read-out: Percentage phytotoxicity ZEAMX. Here is the method:
as §1, §3

Assay [13] relates to Triticum aestivum (TRZAW, winter wheat). Described as above. Particulars: 312 h, post-emergence (Example 1B Table 2), after 13 days, crop plant, read-out: Percentage phytotoxicity TRZAW. Here is the method:
as §1, §4

Another assay deals with Avena fatua (AVEFA). The assay is described as above. Particulars: 312 h, post-emergence (Example 1B Table 2), after 13 days, read-out: Percentage phytotoxicity AVEFA. The method, then: as §1, §4
For the next assay, the system named is Lolium perenne (LOLPE). Described as above. Particulars: 312 h, post-emergence (Example 1B Table 2), after 13 days, read-out: Percentage phytotoxicity LOLPE. Here is the method: as §1, §4
The mark [14] stands for this setting: post-emergence (Example 1B Table 1).
Where [15] appears, read: post-emergence (Example 1B Table 1), 31.25 g/ha.
Where [16] appears, read: post-emergence (Example 1B Table 2), 62.5 g/ha.
Setting [17] is: post-emergence (Example 1B Table 2).

Consider `C#CCC1CC(=O)C(c2c(F)cc(-c3ccc(F)cc3)cc2Cl)C1=O` (stereo not shown) [Compound A4], for which the pest or weed control at 250 g/ha in assay [1] was 0%; in assay [2], 80%; with Setaria faberi (SETFA) [3] it was 100%; in assay [4], 100%; in [5] it was 90%; in [6], 100%. Moreover, the pest or weed control at 250 g/ha in assay [7] (setting [14]) stood at 100%; in assay [8] (setting [14]), 100%; in assay [9] it was 80%; in assay [10], 80%; in the assay with Setaria faberi (SETFA) [11], 100%; in assay [12], 100%. The pest or weed control at 30 g/ha in assay [7] (setting [14]) stood at 90%; in assay [8] (setting [14]), 70%; in assay [9] it was 40%; in [10] it was 60%; in the assay with Setaria faberi (SETFA) [11], 100%; in assay [12] it was 100%.

On to `C#CCC1CC(=O)C(c2c(C)cc(-n3cc(Cl)cn3)cc2C)C1=O` (stereo not shown) [Compound A9], for which the pest or weed control at 250 g/ha in assay [1] is 40%; in assay [2], 70%; with Setaria faberi (SETFA) [3], 100%; in assay [4], 100%; in assay [5] it was 70%; in assay [6], 80%. The pest or weed control at 250 g/ha in assay [7] (setting [14]) came out at 100%; in [8] (setting [14]), 100%; in [9], 80%; in assay [10], 80%; with Setaria faberi (SETFA) [11], 100%; in assay [12], 100%.

`C#CCC1CC(=O)C(c2c(C)cc(-c3ncc(Cl)cn3)cc2C)C1=O` (stereo not shown) [Compound A5, 2-[4-(5-chloropyrimidin-2-yl)-2,6-dimethylphenyl]-4-prop-2-ynylcyclopentane-1,3-dione]: the pest or weed control at 250 g/ha in assay [1] worked out at 70%; in assay [2], 100%; in the assay with Setaria faberi (SETFA) [3], 100%; in [4] it was 100%; in [5], 100%; in assay [6] it was 100%. In addition, the pest or weed control at 250 g/ha in assay [7] (setting [14]) was 100%; in [7] (setting [17]) it was 100%; in assay [8] (setting [14]) it was 100%; in assay [8] (setting [17]), 100%; in assay [9], 90%; in [10], 90%. Also, the pest or weed control at 250 g/ha (with Setaria faberi (SETFA) [11]; in assay [12]; with Avena fatua (AVEFA) (250 g/ha); in the assay with Lolium perenne (LOLPE) (250 g/ha)) was 100% each time. Besides, the pest or weed control at 31.25 g/ha in assay [7] (setting [15]) was 100%; in assay [8] (setting [15]), 80%; in [9] (31.25 g/ha) it was 30%; in assay [10] (31.25 g/ha), 30%; in the assay on Setaria faberi (SETFA) [11] (31.25 g/ha), 100%; in assay [12] (31.25 g/ha), 100%. Also, the pest or weed control at 62.5 g/ha was determined as 100% in [7] (setting [16]), 90% in assay [8] (setting [16]), 100% in the assay on Avena fatua (AVEFA) (62.5 g/ha) and 90% with Lolium perenne (LOLPE) (62.5 g/ha). In [13] (62.5 g/ha), the plant injury at 62.5 g/ha was determined as 80%. Moreover, the plant injury at 250 g/ha in assay [13] (250 g/ha) is 90%.

Take `C#CCC1CC(=O)C(c2cc(-c3ccc(Cl)cc3)ccc2C)C1=O` (stereo not shown) [Compound A16]: the pest or weed control at 250 g/ha was found to be 40% in assay [1]; 40% in assay [2]; 90% with Setaria faberi (SETFA) [3]; 90% in assay [4]; 90% in assay [5]; 80% in [6]. The pest or weed control at 250 g/ha in assay [7] (setting [14]) came to 100%; in assay [8] (setting [14]), 90%; in assay [9], 40%; in assay [10], 60%; in the assay on Setaria faberi (SETFA) [11], 90%; in assay [12] it was 60%. In addition, the pest or weed control at 30 g/ha in assay [7] (setting [14]) was 40%; in assay [8] (setting [14]) it was 70%; in assay [9], 40%; in assay [10], 0%; in the assay on Setaria faberi (SETFA) [11], 80%; in assay [12], 80%.
